Experimental data as given in publication PMC8968952, “Modulation of ERCC1-XPF Heterodimerization Inhibition via Structural Modification of Small Molecule Inhibitor Side-Chains” (Frontiers in Oncology, 2022).
Where “and” joins values, the source holds several entries; their conditions need not be identical. Equal values may be shown once.

Assays:
[1] = molecular target: T1, ERCC1-XPF (Homo sapiens, UniProt Q92889); experiment: Microplate fluorescence incision assay (endonuclease activity); type: biochemical
T1 construct: the final purity of the full-length ERCC1-XPF heterodimer was determined to be ~35%; His6; made in house; host or cells: E. coli BL21(DE3)
T1 sequence (Q92889 1-916): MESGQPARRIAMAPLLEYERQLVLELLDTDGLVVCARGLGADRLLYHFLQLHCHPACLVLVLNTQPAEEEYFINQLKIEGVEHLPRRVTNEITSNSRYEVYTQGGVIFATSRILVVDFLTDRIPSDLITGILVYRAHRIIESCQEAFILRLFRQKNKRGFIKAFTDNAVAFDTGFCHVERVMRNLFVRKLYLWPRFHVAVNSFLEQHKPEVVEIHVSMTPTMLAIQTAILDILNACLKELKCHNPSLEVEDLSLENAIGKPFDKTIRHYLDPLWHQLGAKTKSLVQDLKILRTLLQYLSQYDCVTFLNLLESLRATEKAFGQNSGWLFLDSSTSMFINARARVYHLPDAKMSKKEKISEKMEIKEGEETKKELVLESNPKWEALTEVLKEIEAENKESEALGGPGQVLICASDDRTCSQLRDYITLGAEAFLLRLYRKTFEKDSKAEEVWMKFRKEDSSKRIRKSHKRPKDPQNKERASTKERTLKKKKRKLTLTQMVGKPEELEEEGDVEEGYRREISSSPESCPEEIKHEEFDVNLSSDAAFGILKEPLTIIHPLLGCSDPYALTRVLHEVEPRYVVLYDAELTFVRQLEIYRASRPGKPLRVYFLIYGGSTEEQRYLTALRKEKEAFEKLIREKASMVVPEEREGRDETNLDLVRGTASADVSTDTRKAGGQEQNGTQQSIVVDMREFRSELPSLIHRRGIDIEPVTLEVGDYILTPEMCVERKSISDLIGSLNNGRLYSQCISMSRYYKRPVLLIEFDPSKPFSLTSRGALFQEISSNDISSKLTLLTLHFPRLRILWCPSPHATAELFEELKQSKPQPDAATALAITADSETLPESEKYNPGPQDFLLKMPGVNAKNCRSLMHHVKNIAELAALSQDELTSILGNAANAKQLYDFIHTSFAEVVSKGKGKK
From the text: Recombinant human ERCC1–XPF wild-type protein (containing polyhistidine (His-6) tags) was expressed from a bicistronic plasmid (kindly provided by Dr. Richard Wood, University of Texas MD Anderson Cancer Center, Smithville, TX) in the E. coli BL21(DE3) strain, Following previously described procedures ([70], [78]) the proteins extracted from E. coli were eluted from a ProBond Nickel-Chelating Resin (Thermo Fisher Scientific) and then a Hi-trap heparin column (GE Healthcare). Fractions containing ERCC1–XPF were dialyzed, concentrated, and stored at −80°C in 10 mM HEPES, pH 7.4, 2.5 mM β-mercaptoethanol, 0.01% CHAPS, 0.25 mM EDTA, 50% glycerol, and 25 mM NaCl. Based on polyacrylamide gel separation and Coomassie Blue staining, the final purity of the full-length ERCC1-XPF heterodimer was determined to be ~35%.
We employed a previously described protocol ([60], [70], [78]) in which the incision of the stem–loop substrate [6-FAM-5′-[…](20T)[…]-3′-dabcyl] (100 nM in 50 mM Tris-HCl, pH 8, 20 mM NaCl, 0.5 mM DDT, and 0.75 mM MnCl2) mediated by ERCC1-XPF (25 ng) in a total volume of 20 μL at 25°C was monitored by fluorescence using a FLUOstar Optima fluorimeter (BMG Labtech) with Optima software and excitation and emission wavelengths of 485 and 520 nm, respectively, for 5.5 min. The final concentration of inhibitor in the reaction was 10 μM prepared from a 200 μM stock solution in DMSO. With a molecular weight of 151 KDa for the XPF-ERCC1 heterodimer, a concentration of 25 ng of protein in 20 µl reaction buffer and a purity of 35%, the molar concentration of the enzyme was estimated to be 2.9 nM. Data were plotted using Microsoft Excel 2016.
An in vitro fluorescence-based assay was used to assess the ability of the synthesized compounds to inhibit the endonuclease activity of ERCC1-XPF. This assay has been previously described ([60], [70], [78]) and makes use of a stem-loop DNA substrate with a 5’-FAM fluorescent dye, and a 3’-dabcyl quencher. When ERCC1-XPF can cleave the DNA substrate, a 5’-FAM containing molecule is liberated from the stem-loop (and the quencher) and the fluorescence of the solution increases. The increase of the fluorescence of the solution can be observed in Figure 3A , in the absence of any inhibitor. To determine the influence of the inhibitory compounds, the protein was preincubated for 10 minutes with 10 μM of each inhibitor prior to addition of the substrate.

[2] = tested on: HCT-116 cells; experiment: Cellular repair of cyclobutane pyrimidine dimers (cellular NER) after UVC; type: cell-based, human; conditions: 2 μM
Description: We followed the protocol of Mirzayans et al. ([79]) with minor modifications as previously described ([70]). Inhibitor compounds were dissolved in DMSO and applied to a final DMSO concentration of 0.2% in media and 0.2% DMSO was used as the vehicle control. Mouse anti-thymine dimer monoclonal antibody (cat. no. MC-062, Kamiya Biomedical Company, Seattle, WA) was used for the immunofluorescence following UVC irradiation of the cells and fluorescent microscopic evaluation and measurement of fluorescence intensity were performed using MetaXpress, version 6.2.1.704, software (Molecular Devices, Sunnyvale, California). Data were plotted using GraphPad Prism version 5.04 software.
Immunofluorescent detection of cyclobutane pyrimidine dimers (CPD) generated in the DNA of HCT-116 cells after exposure to UVC radiation was used to measure NER. Our observations that approximately 80% of CPD were removed 24 hours post irradiation in the absence of any inhibitors mirrors previous observations ([70], [79]).

[3] = Metabolic stability in cryopreserved human hepatocytes; type: in vitro ADME
Description: (§1) The ADME (absorption, distribution, metabolism, and excretion) profile of our lead compound 6 was determined by standard protocols carried out by WuXi AppTec (Shanghai) Co (https://www.wuxiapptec.com/). The following tests were conducted: distribution coefficient (log D at pH 7.4), aqueous solubility (Kinetic), metabolic stability in human liver microsomes and cryopreserved human hepatocytes, bidirectional permeability in Caco-2 cells, serum protein binding, and cytochrome P450 (CYP) inhibition (CYP1A2, CYP2C9, CYP2C19, CYP2D6, and CYP3A4-M).

[4] = molecular target: CYP2C9 (Homo sapiens, UniProt P11712); experiment: Cytochrome P450 inhibition, CYP2C9; type: in vitro ADME
Description: as §1

[5] = molecular target: CYP2C19 (Homo sapiens, UniProt P33261); experiment: Cytochrome P450 inhibition, CYP2C19; type: in vitro ADME
Description: as §1

[6] = molecular target: CYP2D6 (Homo sapiens, UniProt P10635); experiment: Cytochrome P450 inhibition, CYP2D6; type: in vitro ADME
Description: as §1

Sequence of CYP2D6 (P10635 whole entry): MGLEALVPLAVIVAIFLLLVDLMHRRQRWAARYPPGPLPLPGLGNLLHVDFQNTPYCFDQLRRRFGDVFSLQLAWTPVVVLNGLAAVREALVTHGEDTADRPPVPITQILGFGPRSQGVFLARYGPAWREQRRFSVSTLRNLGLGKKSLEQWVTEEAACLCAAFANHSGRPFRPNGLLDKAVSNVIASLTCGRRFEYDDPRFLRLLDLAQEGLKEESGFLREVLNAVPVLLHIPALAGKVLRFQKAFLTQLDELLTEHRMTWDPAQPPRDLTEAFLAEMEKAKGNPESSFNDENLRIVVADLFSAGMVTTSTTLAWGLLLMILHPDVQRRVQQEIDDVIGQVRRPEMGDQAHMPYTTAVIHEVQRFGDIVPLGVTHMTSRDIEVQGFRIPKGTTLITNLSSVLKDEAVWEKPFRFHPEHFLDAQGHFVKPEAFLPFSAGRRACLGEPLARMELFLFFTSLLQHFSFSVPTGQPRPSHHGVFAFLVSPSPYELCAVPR
Sequence of CYP2C9 (P11712 whole entry): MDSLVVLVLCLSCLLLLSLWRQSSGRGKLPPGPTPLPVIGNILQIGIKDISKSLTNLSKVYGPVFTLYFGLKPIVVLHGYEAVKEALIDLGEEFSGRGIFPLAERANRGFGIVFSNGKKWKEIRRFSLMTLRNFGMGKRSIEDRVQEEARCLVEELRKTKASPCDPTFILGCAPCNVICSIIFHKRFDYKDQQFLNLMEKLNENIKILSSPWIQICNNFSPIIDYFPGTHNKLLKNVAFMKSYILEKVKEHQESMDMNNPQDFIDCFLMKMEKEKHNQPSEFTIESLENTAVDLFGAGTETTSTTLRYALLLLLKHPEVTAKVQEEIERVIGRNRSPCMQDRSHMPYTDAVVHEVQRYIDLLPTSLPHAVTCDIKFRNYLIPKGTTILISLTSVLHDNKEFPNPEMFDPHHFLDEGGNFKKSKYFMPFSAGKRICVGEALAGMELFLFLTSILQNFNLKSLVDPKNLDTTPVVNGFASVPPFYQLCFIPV
Sequence of CYP2C19 (P33261 whole entry): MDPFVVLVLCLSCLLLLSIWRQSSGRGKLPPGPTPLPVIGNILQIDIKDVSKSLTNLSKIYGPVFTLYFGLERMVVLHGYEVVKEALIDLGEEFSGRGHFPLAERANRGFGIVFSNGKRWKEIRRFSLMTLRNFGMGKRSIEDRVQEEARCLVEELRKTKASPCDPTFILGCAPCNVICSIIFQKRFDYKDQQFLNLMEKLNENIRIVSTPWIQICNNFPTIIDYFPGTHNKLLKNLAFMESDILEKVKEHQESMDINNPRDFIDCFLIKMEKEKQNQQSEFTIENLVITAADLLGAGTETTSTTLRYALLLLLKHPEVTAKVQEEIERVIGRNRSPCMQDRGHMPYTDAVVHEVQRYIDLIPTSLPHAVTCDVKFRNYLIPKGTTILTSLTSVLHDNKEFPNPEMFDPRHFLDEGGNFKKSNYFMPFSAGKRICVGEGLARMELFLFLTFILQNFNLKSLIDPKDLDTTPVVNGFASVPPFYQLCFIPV

COc1ccc2nc3cc(Cl)ccc3c(Nc3ccc(O)c(CN4CCN(CCN(C(C)C)C(C)C)CC4)c3)c2c1 [Compound 6]
IC50 [1]: 0.167 µM and 0.17 µM
inhibition of ERCC1-XPF endonuclease activity (in words, vs control and 4) ([1]; 10 μM inhibitor, 10 min preincubation): increased inhibition of ERCC1-XPF endonuclease activity relative to 4
decrease of ERCC1-XPF endonuclease activity ([1]; 10 μM inhibitor, at 5.5 minutes): 94%
effect on CPD removal / cellular NER (in words) [2]: significant inhibition of NER
metabolic stability grade, hepatocyte assay (in words) [3]: low to moderate metabolic stability
CLint scaled ([3]; human, cryopreserved hepatocytes, read-out: Metabolic stability in cryopreserved human hepatocytes (clearance)): 33.5 mL/min/kg
half-life ([3]; human, cryopreserved hepatocytes, read-out: Metabolic stability in cryopreserved human hepatocytes T1/2): 1.92 h
CYP2C9 inhibition grade (in words) [4]: weak inhibitor
IC50 [4]: 33.4 µM
CYP2C19 inhibition grade (in words) [5]: weak inhibitor
IC50 [5]: 10.8 µM
CYP2D6 inhibition grade (in words) [6]: moderate inhibitor
IC50 [6]: 2.92 µM
